The source of these data is patent US9708314B2, “Heterocyclic amide compound” (NISSAN CHEMICAL INDUSTRIES, LTD., priority 2013, dated 2017).

The structures appear in SMILES notation.

Format in all cases: in vivo
One data set has as its system Stellaria media. The experiment in a line: Test Example 4: herbicidal effect by application to foliage (diluvial soil, plastic box). To be noted: for P: herbicidal effect on Stellaria media: application to foliage, application herbicide amount 320 g/ha. Put shortly: (§1)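 Plants were grown in sterilized diluvial soil in a greenhouse at 25-30° C for 14 days, then sprayed on stems and leaves with water-diluted emulsion formulation at set rates in g/ha. Weed control and crop injury were scored 3 weeks after treatment on a 0-5 herbicidal-ratio scale, from 0 (≤5%) to 5 (≥90%).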

Data set [1] relates to directly sowed Oryza sativa. Description: Test Example 3: effect on crop by application to foliage (Wagner pot, water depth 0.1-0.5 cm). Conditions: Nineteenth Table; application to foliage; application herbicide amount 320 g/ha. Put shortly: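 Greenhouse pot test, 25–30 °C, alluvial soil. Sown seedlings grown 14 days then sprayed on leaves and stems with emulsion diluted to target g/ha. Rating at 3 weeks, 0–5 scale (0 ≤5%, 5 ≥90%).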

Data set [2] has as its system transplanted Oryza sativa. The experiment in a line: Test Example 1: effect on crop, application before weed generation in submerged conditions. To be noted: Application herbicide amount 320 g/ha; Seventeenth Table. Put shortly: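 Pre-emergence application to water surface of submerged pots (4 cm depth, alluvial soil) on sowing day, with 2.5-leaf rice transplanted; emulsion diluted to g/ha rates. Grown in greenhouse at 25–30 °C; 0–5 herbicidal/crop-effect score after three weeks.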

Another data set has as its system Glycine max. Description: Test Example 4: effect on crop by application to foliage (diluvial soil, plastic box). Conditions: for d: effect on crop, Glycine max: application to foliage, application herbicide amount 320 g/ha. In a few lines: as §1
The subject of the next data set is Brassica campestris L. Described as above. Conditions: for g: effect on crop, Brassica campestris L.: application to foliage, application herbicide amount 320 g/ha. Put shortly: as §1
Data set [3] concerns Beta vulgaris ssp. vulgaris. The data set is described as above. To be noted: for f: effect on crop, Beta vulgaris ssp. vulgaris: application to foliage, application herbicide amount 320 g/ha. Put shortly: as §1
Another data set relates to Zea mays. The description is as above. Conditions: for c: effect on crop, Zea mays: application to foliage, application herbicide amount 320 g/ha. In a few lines: as §1
The subject of the next data set is Triticum aestivum. The description is as above. Conditions: for e: effect on crop, Triticum aestivum: application to foliage, application herbicide amount 320 g/ha. In a few lines: as §1
In data set [4] the test system is directly sowed Oryza sativa. The data set is described as above. To be noted: for b: effect on crop, directly sowed Oryza sativa: application to foliage, application herbicide amount 320 g/ha. Put shortly: as §1
Where [5] appears, read: Application herbicide amount 320 g/ha, foliage application.

Turning to `CCSc1nnc2c(C(=O)Nc3nnnn3C)ccc(C(F)(F)F)n12` [2-024], the “P: herbicidal effect on Stellaria media” value in the data set with Stellaria media is listed as 5 (Herbicidal ratio of 90% or more (almost completely withered)). Also, the “b (effect on crop grade)” value in data set [1] is given as 5 (Herbicidal ratio of 90% or more (almost completely withered)). For the same compound, the “a: transplanted Oryza sativa (effect on crop grade)” value (“a: transplanted Oryza sativa” below) in data set [2] was 5 (Herbicidal ratio of 90% or more (almost completely withered)). In addition, in the data set on Glycine max, the “d: effect on crop, Glycine max” value is 5 (Herbicidal ratio of 90% or more (almost completely withered)). Also, the “g: effect on crop, Brassica campestris L.” value (from here on “g: effect on crop”) with Brassica campestris L. was 5 (Herbicidal ratio of 90% or more (almost completely withered)). Besides, in data set [3], the “f: effect on crop, Beta vulgaris ssp. vulgaris” value (shortened to “f: effect on crop”) is listed as 5 (Herbicidal ratio of 90% or more (almost completely withered)). The “c: effect on crop, Zea mays” value in the data set with Zea mays is 5 (Herbicidal ratio of 90% or more (almost completely withered)). Further, the “e: effect on crop, Triticum aestivum” value in the data set on Triticum aestivum is 4 (Herbicidal ratio of 70% or more and less than 90%). In addition, the “b: effect on crop, directly sowed Oryza sativa” value (shortened to “b: effect on crop”) in data set [4] is 5 (Herbicidal ratio of 90% or more (almost completely withered)).

`Cc1nnc(NC(=O)c2ccc(C(F)(F)F)n3c(C4(C)CC4(Cl)Cl)nnc23)o1` (stereo not drawn) [1-105]: in the data set with Stellaria media (setting [5]), the “P (Stellaria media) herbicidal effect grade” value was 4 (Herbicidal ratio of 70% or more and less than 90%). Further, the “b (effect on crop grade)” value in data set [1] is 0 (Herbicidal ratio of 5% or less (almost no effect)). Further, the “a: transplanted Oryza sativa” value in data set [2] is given as 0 (Herbicidal ratio of 5% or less (almost no effect)). Besides, the “d (Glycine max) effect on crop grade” value in the data set on Glycine max (setting [5]) was 2 (Herbicidal ratio of 20% or more and less than 40%). Also, the “g (Brassica campestris L.) effect on crop grade” value in the data set with Brassica campestris L. (setting [5]) is 3 (Herbicidal ratio of 40% or more and less than 70%). Also, the “f (Beta vulgaris ssp. vulgaris) effect on crop grade” value in data set [3] (setting [5]) was 4 (Herbicidal ratio of 70% or more and less than 90%). Also, in the data set with Zea mays (setting [5]), the “c (Zea mays) effect on crop grade” value was 1 (Herbicidal ratio of 5% or more and less than 20%). Also, the “e (Triticum aestivum) effect on crop grade” value with Triticum aestivum (setting [5]) is 1 (Herbicidal ratio of 5% or more and less than 20%). The “b (directly sowed Oryza sativa) effect on crop grade” value in data set [4] (setting [5]) is given as 0 (Herbicidal ratio of 5% or less (almost no effect)).

As for `Cn1nnnc1NC(=O)c1ccc(C(F)(F)F)n2c(C3CCCC3)nnc12` [2-021], the “P: herbicidal effect on Stellaria media” value in the data set on Stellaria media is reported as 5 (Herbicidal ratio of 90% or more (almost completely withered)). In addition, the “b (effect on crop grade)” value in [1] is 5 (Herbicidal ratio of 90% or more (almost completely withered)). In data set [2], the “a: transplanted Oryza sativa” value is 4 (Herbicidal ratio of 70% or more and less than 90%). For the same compound, in the data set on Glycine max, the “d: effect on crop, Glycine max” value is 4 (Herbicidal ratio of 70% or more and less than 90%). Further, the “g: effect on crop” value in the data set on Brassica campestris L. was 4 (Herbicidal ratio of 70% or more and less than 90%). In addition, the “f: effect on crop” value in data set [3] is listed as 5 (Herbicidal ratio of 90% or more (almost completely withered)). The “c: effect on crop, Zea mays” value in the data set on Zea mays is 0 (Herbicidal ratio of 5% or less (almost no effect)). For the same compound, the “e: effect on crop, Triticum aestivum” value in the data set on Triticum aestivum was 3 (Herbicidal ratio of 40% or more and less than 70%). The “b: effect on crop” value in [4] was 4 (Herbicidal ratio of 70% or more and less than 90%).

As to `CCOCc1nnc2c(C(=O)Nc3nnnn3C)ccc(C(F)(F)F)n12` [2-026], the “P: herbicidal effect on Stellaria media” value in the data set on Stellaria media is given as 5 (Herbicidal ratio of 90% or more (almost completely withered)). Further, the “b (effect on crop grade)” value in data set [1] is 5 (Herbicidal ratio of 90% or more (almost completely withered)). Also, the “a: transplanted Oryza sativa” value in [2] was 4 (Herbicidal ratio of 70% or more and less than 90%). For the same compound, in the data set on Glycine max, the “d: effect on crop, Glycine max” value is 5 (Herbicidal ratio of 90% or more (almost completely withered)). The “g: effect on crop” value in the data set on Brassica campestris L. is 5 (Herbicidal ratio of 90% or more (almost completely withered)). In data set [3], the “f: effect on crop” value is on record as 5 (Herbicidal ratio of 90% or more (almost completely withered)). In the data set with Zea mays, the “c: effect on crop, Zea mays” value was 2 (Herbicidal ratio of 20% or more and less than 40%). In addition, in the data set on Triticum aestivum, the “e: effect on crop, Triticum aestivum” value was 3 (Herbicidal ratio of 40% or more and less than 70%). In addition, in data set [4], the “b: effect on crop” value is given as 5 (Herbicidal ratio of 90% or more (almost completely withered)).

Consider `CCC(C)c1nnc2c(C(=O)Nc3nnnn3C)ccc(C(F)(F)F)n12` (stereo not drawn) [2-016], for which the “P: herbicidal effect on Stellaria media” value with Stellaria media is recorded as 5 (Herbicidal ratio of 90% or more (almost completely withered)). Further, the “b (effect on crop grade)” value in data set [1] was 5 (Herbicidal ratio of 90% or more (almost completely withered)). Also, in data set [2], the “a: transplanted Oryza sativa” value is 4 (Herbicidal ratio of 70% or more and less than 90%). For the same compound, the “d: effect on crop, Glycine max” value in the data set on Glycine max is 4 (Herbicidal ratio of 70% or more and less than 90%). In addition, in the data set with Brassica campestris L., the “g: effect on crop” value is 4 (Herbicidal ratio of 70% or more and less than 90%). The “f: effect on crop” value in data set [3] was 5 (Herbicidal ratio of 90% or more (almost completely withered)). In the data set on Zea mays, the “c: effect on crop, Zea mays” value is 1 (Herbicidal ratio of 5% or more and less than 20%). In addition, in the data set on Triticum aestivum, the “e: effect on crop, Triticum aestivum” value is 4 (Herbicidal ratio of 70% or more and less than 90%). The “b: effect on crop” value in [4] was 5 (Herbicidal ratio of 90% or more (almost completely withered)).

With `Cn1nnnc1NC(=O)c1ccc(C(F)(F)F)n2c(Cl)nnc12` [2-008], in the data set on Stellaria media, the “P: herbicidal effect on Stellaria media” value is given as 5 (Herbicidal ratio of 90% or more (almost completely withered)). Further, the “b (effect on crop grade)” value in data set [1] is 0 (Herbicidal ratio of 5% or less (almost no effect)). Further, the “a: transplanted Oryza sativa” value in data set [2] was 1 (Herbicidal ratio of 5% or more and less than 20%). Moreover, the “d: effect on crop, Glycine max” value in the data set with Glycine max is 3 (Herbicidal ratio of 40% or more and less than 70%). The “g: effect on crop” value in the data set on Brassica campestris L. was 3 (Herbicidal ratio of 40% or more and less than 70%). The “f: effect on crop” value in [3] is 5 (Herbicidal ratio of 90% or more (almost completely withered)). In the data set with Zea mays, the “c: effect on crop, Zea mays” value is 0 (Herbicidal ratio of 5% or less (almost no effect)). Besides, in the data set on Triticum aestivum, the “e: effect on crop, Triticum aestivum” value is 2 (Herbicidal ratio of 20% or more and less than 40%). For the same compound, the “b: effect on crop” value in data set [4] was 1 (Herbicidal ratio of 5% or more and less than 20%).

As for `CC(C)c1nnc2c(C(=O)N(C)c3nnnn3C)ccc(C(F)(F)F)n12` [2-023], the “P: herbicidal effect on Stellaria media” value in the data set on Stellaria media is 3 (Herbicidal ratio of 40% or more and less than 70%). In [1], the “b (effect on crop grade)” value is 1 (Herbicidal ratio of 5% or more and less than 20%). Further, the “a: transplanted Oryza sativa” value in data set [2] was 3 (Herbicidal ratio of 40% or more and less than 70%). The “d: effect on crop, Glycine max” value in the data set with Glycine max was 1 (Herbicidal ratio of 5% or more and less than 20%). The “g: effect on crop” value in the data set with Brassica campestris L. is 1 (Herbicidal ratio of 5% or more and less than 20%). Further, the “f: effect on crop” value in [3] was 4 (Herbicidal ratio of 70% or more and less than 90%). The “c: effect on crop, Zea mays” value with Zea mays was 0 (Herbicidal ratio of 5% or less (almost no effect)). Further, in the data set with Triticum aestivum, the “e: effect on crop, Triticum aestivum” value is recorded as 0 (Herbicidal ratio of 5% or less (almost no effect)). The “b: effect on crop” value in [4] is on record as 0 (Herbicidal ratio of 5% or less (almost no effect)).
